Reference: patent publication US9259476B2, “Monophosphorylated lipid A derivatives” (WAYNE STATE UNIVERSITY, priority 2009, dated 2016)

Assays:
[1] = system: 3T3 A31 cells; experiment: In vitro glycoengineered expression of GM3NPhAc on cell surface, flow cytometry with mAb 2H3; assay type: cell-based, murine
Method: (§1) FIG. 3 depicts histograms of the glycoengineering of B16F0 cells (a), 3T3 A31 cells (b) and SKMEL-28 cells (c) using ManNPhAc which induces expression of GM3NPhAc on the cell surface. Cells were cultured with 0, 0.01, 0.02 and 0.04 mM of ManNPhAc, stained with mAb 2H3, labeled with FITC-labeled goat anti-mouse kappa antibody, and analyzed by flow cytometry. Data are presented as raw histograms derived from 20,000 events.
(§2) FIG. 4 depicts histograms of the glycoengineering of B16F0 (a) and 3T3 A31 (b) using NeuNPhAc induces expression of GM3NPhAc on the cell surface. Cells were cultured with 0, 0.01, 0.02 and 0.04 mM of NeuNPhAc, stained with mAb 2H3, labeled with FITC-labeled goat anti-mouse kappa antibody, and analyzed by flow cytometry. Data are presented as raw histograms derived from 10,000 events.
(§3) B16F0, 3T3 A31 and SKMEL-28 cells were incubated with 0.01, 0.02 and 0.04 mM of ManNPhAc or NeuNPhAc, harvested at different time, washed with FACS buffer (phosphate-buffered saline (PBS) containing 1% bovine serum albumin), and incubated on ice for 15 minutes with 100 μL of normal mouse serum (NMS) diluted 1:100 in FACS buffer. Cells were washed 3 times with FACS buffer, and incubated for 30 minutes on ice with 100 μL of anti-GM3NPhAc mAb 2H3 (cell culture supernatant) diluted 1:10 in FACS buffer. Cells were washed again (3 times) and incubated for 30 minutes on ice with 1 μg of FITC-conjugated goat anti-mouse kappa antibody diluted in FACS buffer (100 μL). After washing 3 times with FACS buffer, the expression of GM3NPhAc on cell surfaces was evaluated on a Becton Dickenson FACScan flow cytometer. Data are presented as raw histograms derived from 20000 events.

[2] = system: B16F0 cells; experiment: as above; assay type: cell-based, murine
Method: as §1, §2, §3

[3] = system: GM3NPhAc; experiment: ELISA analysis of GM3NPhAc-specific immune responses in immunized mice; assay type: in vivo
Method: FIG. 1 relates to the ELISA analysis of GM3NPhAc-specific immune responses in mice. For ELISA assays, GM3NPhAc-HSA was used as the capture antigen. Goat anti-mouse kappa antibodies were used to detect antibodies bond to the capture antigen. Titers are determined by linear regression analysis and defined as the highest dilution yielding an optical density of 0.2. (a) GM3NPhAc-specific total antibody contents in day −1, 27 and 38 mice sera. Mice were immunized with 1N containing 15 μg of GM3NPhAc. Each line represents the antibody level in serum pooled from a group of five mice. (b) Comparison of GM3NPhAc-specific total antibody titers in day 38 mice sera. Mice were immunized with 1N containing 15, 6 or 3 μg of GM3NPhAc. (c) Comparison of immunological results of conjugates 1, 2 and T-1. 1N: conjugate 1 alone; 1A: conjugate 1+an external adjuvant; 2N: conjugate 2 alone; 2A: conjugate 2+an external adjuvant; T-1N: conjugate T-1 alone. Each dot represents the GM3NPhAc-specific immune response of individual mouse and the black lines represent the average antibody level of a group of five mice.
FIG. 2 relates to the titer analysis of different isotypes of GM3NPhAc-specific antibodies induced by 1N (left) and T-1N (right). […] Titers are determined by linear regression analysis and defined as the highest dilution yielding an optical density of 0.2. […]

[4] = system: SKMEL-28 cells; experiment: In vitro glycoengineered expression of GM3NPhAc on cell surface, flow cytometry with mAb 2H3; assay type: cell-based, human
Method: as §1, §3

For `O=C(Cc1ccccc1)N[C@H]1[C@H]([C@H](O)[C@H](O)CO)OC(O)(C(=O)O)C[C@@H]1O` (stereo partly drawn) [NeuNPhAc], the “Utilization to express GM3NPhAc on cell surface” value ([1]; 0.01, 0.02, 0.04 mM) was “much more efficiently to express GM3NPhAc, even better than B16F0 cancer cells” and the “Expression of GM3NPhAc on cell surface relative to ManNPhAc” value ([2]; 72 hours, same concentrations (0.01, 0.02, 0.04 mM)) was “more significant expression of GM3NPhAc than that incubated with ManNPhAc”.
With `CCC(=O)OC1C(NC(=O)C[C@@H](CC)OC(=O)CC)[C@H](OCCNC(=O)CCC(=O)NCc2cn(CCOC3OC(CO)[C@@H](O[C@@H]4OC(CO)[C@H](O)C(O[C@]5(C(=O)O)CC(O)[C@@H](NC(=O)Cc6ccccc6)C([C@H](O)[C@H](O)CO)O5)C4O)C(O)C3O)nn2)OC(CO[C@@H]2OC(CO)[C@@H](OP(=O)(O)O)C(OC(=O)CC)C2NC(=O)C[C@@H](CC)OC(=O)CC)[C@H]1O` (stereo partly drawn) [Compound T-1] the “Isotypes of GM3NPhAc-specific antibodies (IgM, IgG1, IgG2a, IgG3)” value ([3]; day 38 mice sera, conjugate alone) was “not only GM3NPhAc-specific IgM and IgG1 antibodies, but also much higher titers of IgG3 antibody” and the “GM3NPhAc-specific total antibody immune response” value ([3]; liposome of conjugate alone, no external adjuvant (groups 1N, 2N, T-1N), 15 μg of GM3NPhAc, s.c. day 0, 14, 21, 28) was “comparable to that induced by 1”.
For `[2H]C(C(=O)N[C@@H]1C(O)O[C@H](CO)[C@@H](O)[C@@H]1O)c1ccccc1` (stereo partly drawn) [ManNPhAc], the “Cells showing labelling of GM3NPhAc” value ([1]; 0.01 mM) was “no 3T3 A31 cell showing labelling of GM3NPhAc”, the “Labelling for GM3NPhAc compared to control group” value ([1]; 0.01 mM) was “no substantial labelling” and the “Labelling for GM3NPhAc compared to control group” value ([1]; 0.02 mM) was “no substantial labelling”. For the same compound, the “Labelling for GM3NPhAc compared to control group” value ([1]; 0.04 mM) was “started to show labelling”, the “Cells showing labelling of GM3NPhAc” value ([2]; 0.01 mM) was “only partial B16F0 cell” and the “Expression of GM3NPhAc on cell surface” value ([2]; 0.01 mM, 72 hours) was “significant expression of GM3NPhAc”. The “Concentration dependence of GM3NPhAc expression” value ([2]; 0.01, 0.02, 0.04 mM, 72 hours) was “dependent on ManNPhAc concentrations”, the “Cells showing significant GM3NPhAc labelling above the control group” value ([4]; 0.01 mM, 96 hours) was 100% and the “Expression of GM3NPhAc on cell surface” value ([4]; 0.02 mM, 96 hours) was “further increased”. The “Expression of GM3NPhAc on cell surface” value ([4]; 0.04 mM, 96 hours) was “further increased” and the “Concentration at which a plateau level of GM3NPhAc expression was reached” value ([4]; data not shown) was no less than 0.04 mM.
